Tests used:
[1] = target: T1, mushroom tyrosinase (Agaricus bisporus, UniProt C7FF04); assay: Mushroom tyrosinase inhibition assay; assay type: biochemical; settings: L-tyrosine as substrate
T1 construct: purchased Sigma-Aldrich
Protocol: Mushroom tyrosinase inhibitory activity was determined as described previously, with minor modifications. L-Tyrosine was used as a substrate to determine enzyme activities. […] These dose-dependent inhibition experiments were carried out three times using three to five different concentrations of test compounds to determine IC50 values. Log–linear curves and their equations were derived from the observed percentages of inhibition.

[2] = target: T2, cellular tyrosinase in B16F10 cells (Mus musculus, UniProt P11344); assay: Cellular tyrosinase activity (L-DOPA oxidation) in α-MSH/IBMX-stimulated cells; assay type: cell-based, murine
T2 construct: endogenous in cells; host or cells: B16F10 murine melanoma cells, stimulated with alpha-MSH and IBMX
T2 sequence (P11344 19-533): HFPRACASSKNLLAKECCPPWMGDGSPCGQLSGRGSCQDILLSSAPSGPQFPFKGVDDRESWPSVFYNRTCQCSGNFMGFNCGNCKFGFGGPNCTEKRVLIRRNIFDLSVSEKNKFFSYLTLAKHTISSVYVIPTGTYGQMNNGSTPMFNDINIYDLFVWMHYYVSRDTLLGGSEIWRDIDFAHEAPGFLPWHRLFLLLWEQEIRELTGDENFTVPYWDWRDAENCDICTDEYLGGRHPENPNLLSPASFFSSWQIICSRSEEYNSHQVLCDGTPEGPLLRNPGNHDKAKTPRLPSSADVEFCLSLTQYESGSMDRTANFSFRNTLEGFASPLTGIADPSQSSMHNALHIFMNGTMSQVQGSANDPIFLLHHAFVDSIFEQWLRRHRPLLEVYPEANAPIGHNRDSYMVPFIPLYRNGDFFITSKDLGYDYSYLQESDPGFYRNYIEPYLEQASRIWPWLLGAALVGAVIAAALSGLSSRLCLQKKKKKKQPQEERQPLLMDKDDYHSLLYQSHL
Protocol: Cellular tyrosinase activity was assessed by measuring the oxidation rate of L-DOPA as previously described, with minor modifications. In brief, B16F10 cells were seeded in a 6-well plate at 1 × 10^5 cells/well, and allowed to adhere to well bottoms for 24 h, as described in Section 2.3.5. […]. Cells were then rinsed twice with PBS, exposed to 100 µL of lysis buffer solution (90 µL of 50 mM phosphate buffer (pH 6.5), 5 µL of 2 mM PMSF, and 5 µL of 20% Triton X-100), and lysed at −80 °C for 30 min. After defrosting, cell lysates were transferred to microcentrifuge tubes and centrifuged at 12,000 rpm for 30 min at 4°C, and supernatants (80 µL) were mixed with 20 µL of L-DOPA (2 mg/mL) in a 96-well plate, and incubated for 10 min at 37 °C. Absorbances were measured at 475 nm using a microplate reader (VersaMax^TM, Molecular Devices, Sunnyvale, CA, USA).

[3] = system: tyrosinase glycosylation in B16F10 cells; assay: Western blot of glycosylated and non-glycosylated tyrosinase; assay type: cell-based, murine; settings: 2, 5, 10, 20 µM, 48 h; cytosolic fraction
Protocol: (§1) Five different concentrations of 1b (0, 2, 5, 10, and 20 µM) were exposed to B16F10 cells for 48 h, and the cells were washed with cold PBS two times, harvested, lysed, and centrifuged at 4 °C (12,000 rpm for 10 min). Cell pellets were suspended in 10 mM Tris (pH 8.0) containing 1.5 mM MgCl2, 1 mM DTT, 0.1% NP-40, and protease inhibitors (GenDEPOT), incubated on ice for 15 min, and centrifuged at 12,000× g for 15 min at 4 °C. Supernatants (cytosolic fractions) and pellets were resuspended in 10 mM Tris (pH 8.0) containing 50 mM KCl, 100 mM NaCl, and protease inhibitor, incubated on ice for 30 min, and centrifuged at 12,000× g for 15 min at 4 °C. The resultant supernatants were nuclear fractions. The protein concentrations were determined by a Bicinchoninic Acid (BCA)™ Assay Kit (Pierce, Rockford, IL, USA). The lysed protein samples were mixed in loading buffer (0.2% bromophenol blue, 12.5 mM Tris-HCl, pH 6.8, 10% 2-mercaptoethanol, and 4% SDS) at a volume ratio of 1:4, and boiled for 10 min. […] Quantification of Western blot data were analyzed by CS Analyzer 3.2 (Densitograph) image software (http://www.attokorea.co.kr, admitted on 21 May 2022).

[4] = system: MITF in B16F10 cells; assay: Western blot of nuclear MITF; assay type: cell-based, murine; settings: nuclear fraction
Protocol: as §1

[5] = DPPH radical scavenging activity assay; settings: compound 1.0 mM, 30 min in the dark, 517 nm
Protocol: The DPPH (2,2-diphenyl-1-picrylhydrazyl) scavenging activities of synthesized compounds 1a–1p were investigated as previously described, with minor modifications. A dimethyl sulfoxide solution (20 µL) containing 10 mM of each compound was mixed with DPPH methanol solution (0.2 mM, 180 µL) in the wells of a 96-well plate, and placed in the dark for 30 min at room temperature. At 517 nm, optical densities were measured using a microplate reader (VersaMax^TM, Molecular Devices, Sunnyvale, CA, USA). The DPPH radical scavenging ability of the 2-arylbenzothiazole derivatives was compared with that of L-ascorbic acid, the positive control. All experiments were performed independently in triplicate.

T1 sequence (C7FF04 1-392 limits assumed): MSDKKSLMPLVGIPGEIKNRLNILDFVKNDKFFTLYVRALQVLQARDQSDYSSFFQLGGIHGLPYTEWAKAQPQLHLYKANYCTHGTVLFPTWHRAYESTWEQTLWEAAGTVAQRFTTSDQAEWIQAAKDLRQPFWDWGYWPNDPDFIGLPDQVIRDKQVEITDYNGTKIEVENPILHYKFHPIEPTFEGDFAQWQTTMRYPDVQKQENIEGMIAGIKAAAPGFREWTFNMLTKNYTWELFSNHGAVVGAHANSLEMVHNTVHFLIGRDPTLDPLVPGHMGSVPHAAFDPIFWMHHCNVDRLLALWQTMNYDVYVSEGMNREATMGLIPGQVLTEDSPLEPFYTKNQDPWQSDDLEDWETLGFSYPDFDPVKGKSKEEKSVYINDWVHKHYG

For `Oc1ccc(-c2nc3cc(C(F)(F)F)ccc3s2)c(O)c1` [Compound 1b, 4-(5-(Trifluoromethyl)benzo[d]thiazol-2-yl)benzene-1,3-diol], the IC50 [1] was 0.2 ± 0.01 µM, the “potency relative to kojic acid (fold more potent)” value ([1]; IC50 versus kojic acid) was 55 fold and the “increase of anti-tyrosinase activity relative to 1a” value ([1]; versus 1a) was 240 fold. The cellular tyrosinase activity ([2]; 10 µM, compared with kojic acid 20 µM) was “reduced tyrosinase activity to that achieved by 20 µM kojic acid”, the cellular tyrosinase activity ([2]; 20 µM) was “reduced tyrosinase activity to the untreated control level” and the “effect on cellular tyrosinase activity” value ([2]; 5, 10, 20 µM, IBMX + α-MSH, 48 h) was “significantly and concentration-dependently suppressed”. The “ratio of glycosylated tyrosinase to total tyrosinase” value [3] was “significantly reduced”, the MITF protein levels ([4]; high concentrations (10–20 µM)) was “significantly and dose-dependently reduced MITF protein levels” and the MITF protein levels ([4]; low concentrations (2–5 μM)) was “MITF protein levels increased”. The “DPPH radical scavenging activity” value [5] was “moderate DPPH radical scavenging efficacy” and the melting point was 236.2 to 238.2 °C.
